Assay results published in patent US7691836B2, “Progesterone receptor modulators” (N.V. Organon, priority 2004, dated 2010).

Assays:
[1] = biological target: T1, progesterone receptor-B (Homo sapiens, UniProt P06401); test: Progesterone receptor-B transactivation, agonistic mode (CHO cells, luciferase); format: cell-based; conditions: for EC50: CHO cells, agonistic mode, read-out: PRBagoEC50; for Emax: CHO, read-out: PRBago Eff (%)
T1 sequence (P06401 1-933): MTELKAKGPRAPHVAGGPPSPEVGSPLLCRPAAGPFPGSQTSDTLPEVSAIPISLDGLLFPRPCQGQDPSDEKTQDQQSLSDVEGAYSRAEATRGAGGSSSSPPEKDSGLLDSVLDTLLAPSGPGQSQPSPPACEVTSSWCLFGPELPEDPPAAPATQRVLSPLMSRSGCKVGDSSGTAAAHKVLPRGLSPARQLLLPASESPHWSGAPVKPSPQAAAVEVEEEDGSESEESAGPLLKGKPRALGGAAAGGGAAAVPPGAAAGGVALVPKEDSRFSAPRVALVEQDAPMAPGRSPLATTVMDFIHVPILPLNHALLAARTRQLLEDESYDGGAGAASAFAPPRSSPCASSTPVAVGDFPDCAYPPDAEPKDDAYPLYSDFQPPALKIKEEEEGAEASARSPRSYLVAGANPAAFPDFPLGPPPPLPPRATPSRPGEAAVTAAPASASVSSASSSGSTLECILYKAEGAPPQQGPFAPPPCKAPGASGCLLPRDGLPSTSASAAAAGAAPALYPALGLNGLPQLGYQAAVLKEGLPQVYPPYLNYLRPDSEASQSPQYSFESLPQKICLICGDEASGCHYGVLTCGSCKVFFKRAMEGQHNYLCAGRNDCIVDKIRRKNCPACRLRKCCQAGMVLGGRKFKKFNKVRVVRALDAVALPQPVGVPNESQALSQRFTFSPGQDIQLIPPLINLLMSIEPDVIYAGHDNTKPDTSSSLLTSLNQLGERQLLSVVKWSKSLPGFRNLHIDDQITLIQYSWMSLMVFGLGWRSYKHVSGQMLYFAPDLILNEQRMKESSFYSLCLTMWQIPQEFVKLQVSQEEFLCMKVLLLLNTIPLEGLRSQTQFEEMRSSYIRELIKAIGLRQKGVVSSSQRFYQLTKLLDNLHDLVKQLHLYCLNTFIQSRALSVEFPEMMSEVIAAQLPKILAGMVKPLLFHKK
Source text: For selecting compounds of the subject invention with a mixed modulating effect on the progesterone receptor, testing in the agonistic mode must result in an intrinsic activity of between about 15% and about 85% of the maximal activity when (16α)-16-ethyl-21-hydroxy-19-norpregn-4-ene-3,20-dione is used as a reference. Moreover, this maximal agonistic activity should be reached at a concentration of 10^−6 or less, and preferably at a concentration of 10^−8 or less.
(§1) The progestagenic activity of a compound of the invention (EC50 and intrinsic agonistic activity) was determined in an in vitro bioassay of Chinese hamster ovary (CHO) cells as described by W. G. E. J. Schoonen et al. (Anal. Biochem. 261 (1998), 222-224). […] The efficacy of the antagonistic effect was expressed as the percentage of the effect produced by a standard antagonist, (6β,11β,17β)-11-[4-(dimethylamino)phenyl]-4′,5′-dihydro-6-methylspiro[estra-4,9-diene-17,2′(3′H)-furan]-3-one.
(§2) It will be recognized by those skilled in the art that, in the setting described above, the EC50 determined is more or less absolute and depends on the intrinsic property of the tested compound itself, however, the IC50 depends on the amount and agonistic EC50 of the inducer as well as on the intrinsic property of the tested compound itself. Thus, with the same amount of inducer, a relatively strong antagonist will be able to produce a measurable IC50 whereas a relatively weak antagonist may fail to produce a detectable result.

[2] = biological target: T1, progesterone receptor-B; test: Progesterone receptor-B transactivation, antagonistic mode (inhibition of luciferase transactivation by inducer, CHO cells); format: cell-based; conditions: for Emax: CHO, read-out: PRBant Eff (%); for EC50: in the presence of 0.1 nM inducer (16α)-16-ethyl-21-hydroxy-19-norpregn-4-ene-3,20-dione, read-out: PRBant EC50
Method: In the antagonistic mode, testing must result in an intrinsic activity of between about 85% and about 15% of the maximal activity when (6β,11β,17β)-11-[4-(dimethylamino)phenyl]-4′,5′-dihydro-6-methylspiro[estra-4,9-diene-17,2′(3′H)-furan]-3-one is used as a reference.
as §1, §2

[3] = intrinsic agonistic activity, relative to reference (16α)-16-ethyl-21-hydroxy-19-norpregn-4-ene-3,20-dione
[4] = intrinsic antagonistic activity, percentage of effect of standard antagonist (6β,11β,17β)-11-[4-(dimethylamino)phenyl]-4′,5′-dihydro-6-methylspiro[estra-4,9-diene-17,2′(3′H)-furan]-3-one, 0.1 nM inducer

EC50 [1] [nM] | Emax [1, 3] [%] | Emax [2, 4] [%] | EC50 [2] [nM] | PRBago Eff (%) [1, 3] [%] | PRBant Eff (%) [2, 4] [%] | Compound
0.2 | 49.2 | 46.4 | 0.267 | – | – | C[C@@H]1C[C@H]2[C@@H]3CCC4=CC(=O)CCC4=C3[C@@H](c3ccc(-c4cccnc4)cc3)C[C@]2(C)[C@H]1C(=O)C1CC1 [Example 1, (11β,16α,17β)-17-cyclopropylcarbonyl-16-methyl-11-[4-(3-pyridinyl)-phenyl]estra-4,9-dien-3-one]
0.34 | – | – | 3.3 | 44.5 | 47 | C[C@@H]1C[C@H]2[C@@H]3CCC4=CC(=O)CCC4=C3[C@@H](c3ccc(-c4cccnc4)cc3)C[C@]2(C)[C@H]1C(=O)C1CC1.Cl [Example 2, (11β,16α,17β)-17-cyclopropylcarbonyl-16-methyl-11-[4-(3-pyridinyl)-phenyl]estra-4,9-dien-3-one hydrochloride]
0.12 | 41.5 | 59 | 0.628 | – | – | COc1ccc(-c2ccc([C@H]3C[C@@]4(C)[C@@H](C[C@@H](C)[C@@H]4C(=O)C4CC4)[C@@H]4CCC5=CC(=O)CCC5=C43)cc2)cn1 [Example 3, (11β,16α,17β)-17-cyclopropylcarbonyl-11-[4-(6-methoxypyridin-3-yl)phenyl]-16-methylestra 4,9-dien-3-one]
1.1 | 46.5 | 43 | 0.47 | – | – | C[C@@H]1C[C@H]2[C@@H]3CCC4=CC(=O)CCC4=C3[C@@H](c3ccc(-c4ccc(Cl)nc4)cc3)C[C@]2(C)[C@H]1C(=O)C1CC1 [Example 4, (11β,16α,17β)-11-[4-(6-chloropyridin-3-yl)phenyl]-17-cyclopropyl-carbonyl-16-methylestra-4,9-dien-3-one]
0.49 | 50.5 | 50 | 8.48 | – | – | C[C@@H]1C[C@H]2[C@@H]3CCC4=CC(=O)CCC4=C3[C@@H](c3ccc(-c4ccc(F)nc4)cc3)C[C@]2(C)[C@H]1C(=O)C1CC1 [Example 5, (11β,16α,17β)-17-cyclopropylcarbonyl-11-[4-(6-fluoropyridin-3-yl)phenyl]-16-methylestra-4,9-dien-3-one]
1.3 | 54 | 34 | 28 | – | – | COc1cncc(-c2ccc([C@H]3C[C@@]4(C)[C@@H](C[C@@H](C)[C@@H]4C(=O)C4CC4)[C@@H]4CCC5=CC(=O)CCC5=C43)cc2)c1 [Example 6, (11β,16α,17β)-17-cyclopropylcarbonyl-16-methyl-11-[4-(5-methoxy-pyridin-3-yl)phenyl]estra-4,9-dien-3-one]
1 | 50 | 24 | 3.14 | – | – | C[C@@H]1C[C@H]2[C@@H]3CCC4=CC(=O)CCC4=C3[C@@H](c3ccc(-c4cnc5ccccc5c4)cc3)C[C@]2(C)[C@H]1C(=O)C1CC1 [Example 7, (11β,16α,17β)-17-cyclopropylcarbonyl-16-methyl-11-[4-(3-quinolidinyl)phenyl]estra-4,9-dien-3-one]
0.36 | 50.5 | 37 | 3.64 | – | – | C[C@@H]1C[C@H]2[C@@H]3CCC4=CC(=O)CCC4=C3[C@@H](c3ccc(-c4ccnnc4)cc3)C[C@]2(C)[C@H]1C(=O)C1CC1 [Example 8, (11β,16α,17β)-17-cyclopropylcarbonyl-16-methyl-11-[4-(4-pyridazinyl)phenyl]estra-4,9-dien-3-one]
1.13 | 54 | 35 | 1.3 | – | – | C[C@@H]1C[C@H]2[C@@H]3CCC4=CC(=O)CCC4=C3[C@@H](c3ccc(-c4cnccn4)cc3)C[C@]2(C)[C@H]1C(=O)C1CC1 [Example 9, (11β,16α,17β)-17-cyclopropylcarbonyl-16-methyl-11-[4-(pyrazin-2-yl)phenyl]estra-4,9-dien-3-one]
